Source: patent US11006631B2, “Substituted pyrimidinyloxy pyridine derivatives as herbicides” (FMC Corporation, priority 2015, dated 2021)

Key:
Type in all cases: in vivo
[1] = tested on: waterhemp (common waterhemp, Amaranthus rudis); assay: Test C postemergence, waterhemp
Description: (§1) Seeds of plant species selected from blackgrass (Alopecurus myosuroides), ryegrass, Italian (Italian ryegrass, Lolium multiflorum), wheat (winter wheat, Triticum aestivum), galium (catchweed bedstraw, Galium aparine), corn (Zea mays), crabgrass, large (large crabgrass, Digitaria sanguinalis), foxtail, giant (giant foxtail, Setaria faberii), lambsquarters (Chenopodium album), morningglory (Ipomoea coccinea), nutsedge, yellow (yellow nutsedge, Cyperus esculentus), pigweed (Amaranthus retroflexus), johnsongrass (Sorghum halepense), ragweed (common ragweed, Ambrosia elatior), soybean (Glycine max), barnyardgrass (Echinochloa crus-galli), oilseed rape (Brassica napus), waterhemp (common waterhemp, Amaranthus rudis), chickweed (common chickweed, Stellaria media), oat, wild (wild oat, Avena fatua), kochia (Kochia scoparia), and velvetleaf (Abutilon theophrasti) were planted in pots containing Redi-Earth® planting medium (Scotts Company, 14111 Scottslawn Road, Marysville, Ohio 43041) comprising spaghnum peat moss, vermiculite, wetting agent and starter nutrients and treated with postemergence applications of a test chemical formulated in a non-phytotoxic solvent mixture which included a surfactant. Plants ranged in height from 2 to 18 cm (1- to 4-leaf stage) for postemergence treatments. Treated plants and controls were maintained in a greenhouse for 13 to 15 days, after which time all species were compared to controls and visually evaluated. Plant response ratings, summarized in Table C, are based on a scale of 0 to 100 where 0 is no effect and 100 is complete control. A dash (-) response means no test result.

[2] = tested on: barnyardgrass (Echinochloa crus-galli); assay: Test A postemergence, barnyardgrass; settings: 0 to 100 scale
Procedure, shortened: (§2)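 Test chemicals in solvent with surfactant applied preemergence as directed soil spray, or postemergence to plants at one- to two-leaf stage (2–10 cm), in loam–sand soil. Injury visually rated versus untreated controls after about 10 days in greenhouse, on a 0 (no effect) to 100 (complete control) scale.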

[3] = tested on: morningglory (Ipomoea coccinea); assay: Test C postemergence, morningglory
Description: as §1

[4] = tested on: ragweed (common ragweed, Ambrosia elatior); assay: Test C postemergence, ragweed
Description: as §1

[5] = tested on: barnyardgrass (Echinochloa crus-galli); assay: Test C postemergence, barnyardgrass
Description: as §1

[6] = tested on: ryegrass, Italian (Italian ryegrass, Lolium multiflorum); assay: Test A postemergence, ryegrass, Italian; settings: 0 to 100 scale
Description: (§3) Seeds of plant species selected from bamyardgrass (Echinochloa crus-galli), kochia (Kochia scoparia), ragweed (common ragweed, Ambrosia elatior), ryegrass, Italian (Italian ryegrass, Lolium multiflorum), foxtail, giant (giant foxtail, Setaria faberii), pigweed (Amaranthus retroflexus), crabgrass, large (large crabgrass, Digitaria sanguinalis), momingglory (Ipomoea spp.), velvetleaf (Abutilon theophrasti), wheat (Triticum aestivum), and corn (Zea mays) were planted into a blend of loam soil and sand and treated preemergence with a directed soil spray using test chemicals formulated in a non-phytotoxic solvent mixture which included a surfactant. At the same time, plants selected from these crop and weed species and also blackgrass (Alopecurus myosuroides), and galium (catchweed bedstraw, Galium aparine) were planted in pots containing the same blend of loam soil and sand and treated with postemergence applications of test chemicals formulated in the same manner. Plants ranged in height from 2 to 10 cm and were in the one- to two-leaf stage for the postemergence treatment. Treated plants and untreated controls were maintained in a greenhouse for approximately 10 days, after which time all treated plants were compared to untreated controls and visually evaluated for injury. Plant response ratings, summarized in Table A, are based on a 0 to 100 scale where 0 is no effect and 100 is complete control. A dash (-) response means no test result.

soybean (Glycine max) = assay: Test C postemergence, soybean
Description: as §1

[7] = tested on: ryegrass, Italian (Italian ryegrass, Lolium multiflorum); assay: Test C postemergence, ryegrass, Italian
Description: as §1

[8] = tested on: nutsedge, yellow (yellow nutsedge, Cyperus esculentus); assay: Test C postemergence, nutsedge, yellow
Description: as §1

[9] = tested on: oilseed rape (Brassica napus); assay: Test C postemergence, oilseed rape
Description: as §1

[10] = tested on: wheat (Triticum aestivum); assay: Test A postemergence, wheat; settings: 0 to 100 scale
Procedure, shortened: as §2

[11] = tested on: galium (catchweed bedstraw, Galium aparine); assay: Test C postemergence, galium
Description: as §1

kochia (Kochia scoparia) = assay: Test C postemergence, kochia
Description: as §1

[12] = tested on: ragweed (common ragweed, Ambrosia elatior); assay: Test A preemergence, ragweed; settings: 0 to 100 scale
Description: as §3

[13] = tested on: blackgrass (Alopecurus myosuroides); assay: Test C postemergence, blackgrass
Description: as §1

[14] = tested on: sedge, umbrella (small-flower umbrella sedge, Cyperus difformis); assay: Test B flooded paddy test, sedge, umbrella; settings: Flood, 250 g ai/ha; scale of 0 to 100
Procedure, shortened: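 Plants grown to 2-leaf stage; pots flooded 3 cm above soil and compound applied directly into paddy water, depth held throughout. Visual rating against untreated controls after 13 to 15 days in greenhouse, 0 (no effect) to 100 (complete control).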

[15] = tested on: johnsongrass (Sorghum halepense); assay: Test C postemergence, johnsongrass
Description: as §1

FC(F)c1cc(-c2ncccc2Oc2ncc(Cl)cn2)on1 [Compound 5, 5-chloro-2-[[2-[3-(difluoromethyl)-5-isoxazolyl]-3-pyridinyl]oxy]pyrimidine]
20: Plant response rating, Barnyardgrass ([2]; 125 g ai/ha)
80: Plant response rating, Galium ([11]; 62 g ai/ha) | Plant response rating, Sedge, Umbrella [14]
40: Plant response rating, Ragweed ([4]; 31 g ai/ha) | Plant response rating, Soybean (soybean (Glycine max); 62 g ai/ha)
5: Plant response rating, Ragweed ([4]; 16 g ai/ha) | Plant response rating, Barnyardgrass ([5]; 62 g ai/ha) | Plant response rating, Ryegrass, Italian ([7]; 31 g ai/ha) | Plant response rating, Ryegrass, Italian ([7]; 125 g ai/ha) | Plant response rating, Nutsedge, Yellow ([8]; 62 g ai/ha) | Plant response rating, Nutsedge, Yellow ([8]; 125 g ai/ha) | Plant response rating, Oilseed Rape ([9]; 16 g ai/ha) | Plant response rating, Blackgrass ([13]; 125 g ai/ha) | Plant response rating, Johnsongrass ([15]; 62 g ai/ha)
65: Plant response rating, Waterhemp ([1]; 31 g ai/ha) | Plant response rating, Morningglory ([3]; 31 g ai/ha) | Plant response rating, Morningglory ([3]; 62 g ai/ha) | Plant response rating, Ragweed ([4]; 125 g ai/ha)
85: Plant response rating, Waterhemp ([1]; 125 g ai/ha) | Plant response rating, Morningglory ([3]; 125 g ai/ha) | Plant response rating, Oilseed Rape ([9]; 125 g ai/ha)
60: Plant response rating, Waterhemp ([1]; 16 g ai/ha) | Plant response rating, Soybean (soybean (Glycine max); 16 g ai/ha) | Plant response rating, Oilseed Rape ([9]; 31 g ai/ha) | Plant response rating, Oilseed Rape ([9]; 62 g ai/ha)
90: Plant response rating, Soybean (soybean (Glycine max); 125 g ai/ha) | Plant response rating, Galium ([11]; 125 g ai/ha) | Plant response rating, Kochia (kochia (Kochia scoparia); 16 g ai/ha) | Plant response rating, Kochia (kochia (Kochia scoparia); 31 g ai/ha) | Plant response rating, Kochia (kochia (Kochia scoparia); 62 g ai/ha) | Plant response rating, Kochia (kochia (Kochia scoparia); 125 g ai/ha)
75: Plant response rating, Waterhemp ([1]; 62 g ai/ha) | Plant response rating, Morningglory ([3]; 16 g ai/ha) | Plant response rating, Galium ([11]; 31 g ai/ha)
0: Plant response rating, Barnyardgrass ([2]; 31 g ai/ha) | Plant response rating, Barnyardgrass ([5]; 16 g ai/ha) | Plant response rating, Barnyardgrass ([5]; 31 g ai/ha) | Plant response rating, Ryegrass, Italian ([6]; 31 g ai/ha) | Plant response rating, Ryegrass, Italian ([6]; 125 g ai/ha) | Plant response rating, Ryegrass, Italian ([7]; 16 g ai/ha) | Plant response rating, Ryegrass, Italian ([7]; 62 g ai/ha) | Plant response rating, Nutsedge, Yellow ([8]; 16 g ai/ha) | Plant response rating, Wheat ([10]; 31 g ai/ha) | Plant response rating, Ragweed ([12]; 31 g ai/ha) | Plant response rating, Blackgrass ([13]; 16 g ai/ha) | Plant response rating, Blackgrass ([13]; 31 g ai/ha) | Plant response rating, Blackgrass ([13]; 62 g ai/ha) | Plant response rating, Johnsongrass ([15]; 16 g ai/ha) | Plant response rating, Johnsongrass ([15]; 31 g ai/ha)
10: Plant response rating, Barnyardgrass ([5]; 125 g ai/ha) | Plant response rating, Nutsedge, Yellow ([8]; 31 g ai/ha) | Plant response rating, Wheat ([10]; 125 g ai/ha) | Plant response rating, Ragweed ([12]; 125 g ai/ha) | Plant response rating, Johnsongrass ([15]; 125 g ai/ha)
35: Plant response rating, Ragweed ([4]; 62 g ai/ha) | Plant response rating, Galium ([11]; 16 g ai/ha)
70: Plant response rating, Soybean (soybean (Glycine max); 31 g ai/ha)
